Experiments:
Experiment in all cases: relative viability (nuclei count vs DMSO), 5 days (fraction); higher = more cells survive
Kobe2602 + Trametinib = compound: C1=CC(=CC=C1NC(=S)NNC2=C(C=C(C=C2[N+](=O)[O-])C(F)(F)F)[N+](=O)[O-])F [Kobe2602] + CC(=O)Nc1cccc(-n2c(=O)n(C3CC3)c(=O)c3c(Nc4ccc(I)cc4F)n(C)c(=O)c(C)c32)c1 [Trametinib] (partner 0.02 µM)
Procedure, shortened: (§1)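 A single step with final 0.05% Triton X-100, 1% formaldehyde and 1 ug/ml Hoechst fixed the cells and stained nuclei 5 days after treatment. Lung cancer cell lines in 1536-well plates had been treated by pin tool the day after seeding with one drug alone or a fixed anchor-drug dose plus five library-drug doses (not always all listed) in √10 steps, and nuclei were counted on 4× images. Relative viability is the ratio of nuclei in treated wells to nuclei in vehicle wells, taken as the median of duplicate plates.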

Cabozantinib + AZD7762 = compound: COc1cc2nccc(Oc3ccc(NC(=O)C4(C(=O)Nc5ccc(F)cc5)CC4)cc3)c2cc1OC [Cabozantinib] + NC(=O)Nc1cc(-c2cccc(F)c2)sc1C(=O)N[C@H]1CCCNC1 [AZD7762] (partner 0.2 µM)
Procedure, shortened: as §1

[1] = compound: COc1cc2nccc(Oc3ccc(NC(=O)C4(C(=O)Nc5ccc(F)cc5)CC4)cc3)c2cc1OC [Cabozantinib] + CCNC(=O)c1noc(-c2cc(C(C)C)c(O)cc2O)c1-c1ccc(CN2CCOCC2)cc1 [Luminespib] (partner 0.01 µM)
Procedure, shortened: as §1

Kobe2602 + Pemetrexed = compound: C1=CC(=CC=C1NC(=S)NNC2=C(C=C(C=C2[N+](=O)[O-])C(F)(F)F)[N+](=O)[O-])F [Kobe2602] + Nc1nc2[nH]cc(CCc3ccc(C(=O)N[C@@H](CCC(=O)O)C(=O)O)cc3)c2c(=O)[nH]1 [Pemetrexed] (partner 0.2 µM)
Procedure, shortened: as §1

Cell Line	relative viability (Kobe2602 + Trametinib; first compound 0.2 µM)	relative viability (Kobe2602 + Trametinib; first compound 0.6325 µM)	relative viability (Kobe2602 + Trametinib; first compound 2 µM)	relative viability (Kobe2602 + Trametinib; first compound 6.325 µM)	relative viability (Kobe2602 + Trametinib; first compound 20 µM)	relative viability (Cabozantinib + AZD7762; first compound 0.02 µM)	relative viability (Cabozantinib + AZD7762; first compound 0.06325 µM)	relative viability (Cabozantinib + AZD7762; first compound 0.2 µM)	relative viability (Cabozantinib + AZD7762; first compound 0.6325 µM)	relative viability (Cabozantinib + AZD7762; first compound 2 µM)	relative viability ([1]; first compound 0.02 µM)	relative viability ([1]; first compound 0.06325 µM)	relative viability ([1]; first compound 0.2 µM)	relative viability ([1]; first compound 0.6325 µM)	relative viability ([1]; first compound 2 µM)	relative viability (Kobe2602 + Pemetrexed; first compound 0.2 µM)	relative viability (Kobe2602 + Pemetrexed; first compound 0.6325 µM)	relative viability (Kobe2602 + Pemetrexed; first compound 2 µM)	relative viability (Kobe2602 + Pemetrexed; first compound 6.325 µM)	relative viability (Kobe2602 + Pemetrexed; first compound 20 µM)
NCI-H2126	0.594	0.598	0.52	0.577	0.459	0.901	1.03	0.941	0.988	1.07	0.871	0.973	0.969	0.89	1.1	0.647	0.67	0.629	0.736	0.686
PC-14	0.697	0.693	0.659	0.823	0.361	0.323	0.415	–	0.406	0.354	0.198	0.139	–	0.237	0.179	0.15	0.137	0.134	0.15	0.14
NCI-H522	0.9	0.947	0.736	0.742	0.723	0.704	0.767	0.819	0.999	0.865	1.15	1.41	1.56	1.07	1.23	1.06	1.19	0.974	1.15	1.01
EMC-BAC-2	0.822	0.874	0.898	0.91	0.807	0.95	1.26	1.11	1.13	1.13	1.23	1.15	1.24	1.1	1.09	0.459	0.453	0.445	0.492	0.457
NCI-H1437	0.458	0.463	0.519	0.603	0.419	1.16	1.18	1.19	1.21	1.04	1.14	1.14	1.13	1.09	1	0.303	0.317	0.313	0.298	0.295
NCI-H2405	0.644	0.712	0.621	0.66	0.669	0.687	0.918	0.769	0.68	0.655	0.615	0.83	0.648	0.629	0.588	1.07	1.21	0.888	1.1	1.08
NCI-H1666	0.824	0.836	0.766	0.89	0.808	0.712	1.02	0.763	0.921	0.814	0.968	1	1.02	1.04	1.06	0.81	0.861	1.01	0.934	0.861
NCI-H1993	0.516	0.489	0.429	0.507	0.476	0.589	0.556	0.513	0.461	0.56	0.787	0.738	0.667	0.828	0.73	0.561	0.589	0.461	0.531	0.587
HCC-44	1.04	1.16	1.02	0.939	0.967	1.04	1.03	1.08	1.07	1.12	–	1.15	1.08	1	1.02	0.595	0.684	0.653	0.671	0.609
LU99A	0.546	0.647	0.571	0.534	0.593	0.292	0.376	0.411	0.279	0.397	0.283	0.268	0.238	0.196	0.261	0.179	0.169	0.186	0.207	0.163
NCI-H596	0.759	0.685	0.772	0.792	0.859	1.12	1.35	1.15	1.07	1.09	0.905	1.26	1.02	1.08	0.907	0.541	0.523	0.568	0.505	0.495
NCI-H1975	0.332	0.333	0.328	0.29	0.352	0.673	0.828	0.683	0.678	0.682	0.221	0.258	0.233	0.219	0.212	0.271	0.306	0.265	0.294	0.286
NCI-H1355	0.441	0.464	0.369	0.415	0.43	0.703	0.919	0.83	0.754	0.746	0.806	0.852	0.682	0.738	0.871	1.06	1.07	0.992	0.983	0.968
NCI-H1755	0.825	0.728	0.779	0.766	0.726	0.449	0.494	0.471	0.39	0.547	0.33	0.419	0.54	0.344	0.403	0.514	0.419	0.447	0.391	0.398
NCI-H1395	0.991	1.06	1.03	0.989	1.19	0.367	0.445	0.436	0.42	0.401	0.744	0.978	0.873	0.619	0.547	1.04	1.01	0.931	0.967	0.843
NCI-H322M	0.555	0.495	0.5	0.467	0.521	0.574	0.716	0.543	0.725	0.612	0.922	1.14	0.817	0.969	0.941	0.63	0.646	0.605	0.652	0.631
